# Experimental data reported in publication PMC11574108, “4-Furanylvinylquinoline derivative as a new scaffold for the design of oxidative stress initiator and glucose transporter inhibitor drugs” (Scientific Reports, 2024).
# “And” between values parts separate entries of the source, which are not always exact repeats. Equal entries are not always repeated.
# Assays:
# HCT 116 p53+/+ = test: Monolayer antiproliferative MTS assay; assay type: cell-based, human; details: 2D monolayer; for IC50: MTS, 72-h incubation; for SI (selectivity index) HCT 116 p53+/+: relative to NHDF
# Excerpt: (§1) The human colon carcinoma cell line HCT 116 with wild-type p53 (p53^+/+) and the human glioblastoma cell line U-251 were obtained from ATCC, while the HCT 116 with a p53 deletion (p53^−/−) was kindly provided by Prof. M. Rusin from the Maria Sklodowska-Curie Memorial Cancer Center and Institute of Oncology in Gliwice, Poland. The human chronic myelogenous leukaemia cell line K562 and the normal human cell dermal fibroblast cell line NHDF were purchased from Sigma-Aldrich and PromoCell, respectively. Both the HCT 116 and U-251 cell lines were cultured in Dulbecco’s modified Eagle’s medium (DMEM) supplemented with 10% inactivated foetal bovine serum (FBS). The DMEM for the NHDF contained 15% non-inactivated FBS. K562 cells were cultured in RPMI medium completed by 10% inactivated FBS. Additionally, the media were supplemented with antibiotics (streptomycin and penicillin – 1% v/v; Sigma-Aldrich). The cell culture was conducted in 75 cm^2 flasks (Nunc) under standard conditions (37 °C, 5% CO2 humidified atmosphere). Furthermore, the cell lines were frequently tested for mycoplasma using the qRT-PCR technique with specific Mycoplasma primers to confirm the lack of contamination.
# (§2) The cells were seeded in 96-well plates (Nunc) with 5,000 or 4,000 cells per well for the cancer cells and NHDF, respectively, and incubated under standard conditions at 37 °C overnight. The culture media were then changed for freshly prepared solutions of the tested compounds in various concentrations. After 72-h incubation the antiproliferative assay was carried out as follows: the solutions of the compounds were changed in each well to 100 µL DMEM without phenol red and 20 µL of CellTiter 96 AQueous One Solution-MTS (Promega). The plates were incubated for 1 h at 37 °C, and the absorbance was then measured at 490 nm using a multi-plate reader (Synergy 4, BioTek). The experiment for each sample was repeated at least three times.
# (§3) Additionally, the compounds were also tested for their cytotoxicity against normal cells – human dermal fibroblasts (NHDF).
# HCT 116 p53-/- = test: Monolayer antiproliferative MTS assay; assay type: cell-based, human; details: 2D monolayer; for IC50: MTS, 72-h incubation; for SI (selectivity index) HCT 116 p53-/-: relative to NHDF
# Excerpt: as §1, §2, §3
# NHDF = test: Monolayer MTS cytotoxicity against normal cells; assay type: cell-based; details: normal human dermal fibroblasts, 72-h incubation
# Excerpt: as §1, §2, §3
# K562 = test: Monolayer antiproliferative MTS assay; assay type: cell-based, human; details: 2D model
# Excerpt: as §1
# as §2, with “times. The results are presented as the half-maximal inhibitory concentration (IC50) values, which were estimated in comparison to untreated cells (control) and calculated using GraphPad Prism v.8.0 (USA).” for “times.”
# (§4) However, the antiproliferative activity of derivative 13 with furan a ring was surprising. […] For this purpose, we selected two pancreatic cancer cell lines: AsPC-1, which is characterised by a deletion of the p53 protein[20] and PANC-1, which carries an R273H mutation. This mutation also occurred in the glioblastoma U-251 cell line[22],[23]. An additional non-adherent line that carries the TP53 mutation that results in the absence of p53 is the K562 leukemic cell line[24]. […] Moreover, 13 was selective toward […], as indicated by its SI values (3.35–9.41). Among all of the tested cell lines, the highest activity of the compound was found against the HCT 116 cells with the wild-type p53 protein (0.069 µM). […] The p53 protein also interacts with the metabolic pathways that are associated with glucose transport[25] as well as small molecules. In light of the above-mentioned facts, we also determined the cytotoxicity of the GLUT inhibitor BAY-876, which is based on a quinoline scaffold. […] Furthermore, BAY-876 was also toxic to normal cells.
# U-251 = test: Monolayer antiproliferative MTS assay; assay type: cell-based, human; details: 2D monolayer
# Excerpt: as §1
# as §2, with “times. The results are presented as the half-maximal inhibitory concentration (IC50) values, which were estimated in comparison to untreated cells (control) and calculated using GraphPad Prism v.8.0 (USA).” for “times.”
# as §4
# AsPC-1 = test: Monolayer antiproliferative MTS assay; assay type: cell-based, human; details: 2D monolayer
# Method: as §2, with “times. The results are presented as the half-maximal inhibitory concentration (IC50) values, which were estimated in comparison to untreated cells (control) and calculated using GraphPad Prism v.8.0 (USA).” for “times.”
# as §4
# PANC-1 = test: Monolayer antiproliferative MTS assay; assay type: cell-based, human; details: 2D monolayer
# Method: as §2, with “times. The results are presented as the half-maximal inhibitory concentration (IC50) values, which were estimated in comparison to untreated cells (control) and calculated using GraphPad Prism v.8.0 (USA).” for “times.”
# as §4
# GLUT-1 = test: Western blot, GLUT-1 protein level; assay type: cell-based, human; details: HCT 116 p53+/+, DOX 5 µM, both time points (24 and 48 h)
# Method: The cells (500,000) were seeded in 35 mm Petri dishes (Nunc) and incubated in a solution of the tested compound (0.5 µM and 1 µM) for 24 h and 48 h. The cells were then dissociated using trypsin, collected in Eppendorf tubes, and centrifuged at 2,000 rpm. Next, cell pellets were resuspended in complete RIPA buffer containing a Halt Protease Inhibitor Cocktail and Halt Phosphatase Inhibitor Cocktail along with 0.5 M EDTA (all reagents from Thermo Fisher Scientific) and lysed on ice for 20 min. Afterward, the lysates were sonicated and centrifuged at 10,000 rpm for 10 min at 4 °C. The obtained supernatants were collected for further analysis. The protein concentration was determined using a Micro BCA™ Protein Assay Kit (Thermo Fisher Scientific) according to the manufacturer’s procedure. Equal amounts of proteins (16 µg) were electrophoresed on SDS-Page gels and transferred onto nitrocellulose membranes. Novex Sharp Pre-Stained Protein Standard (Thermo Fisher Scientific) was used as a colored molecular weight marker. The membranes were blocked in 5% non-fat milk prepared in TPBS (PBS supplemented by 0.1% Tween-20) for 1 h. After blocking, the membranes were cut, and then incubated with specific primary monoclonal antibodies (all purchased from Cell Signaling) overnight at 4 °C. The antibodies for the target proteins (CDK1 Mouse mAb #9116, p53 Mouse mAb #2524, FAS Mouse mAb #8023, GLUT-1 Rabbit mAb #12939, HO-1 Rabbit mAb #5853, p21^Waf1/Cip1 Rabbit mAb #2947, PARP #9542) were diluted 1:1000, while the antibodies for the reference proteins (GAPDH Rabbit mAb #2118, β-actin Mouse mAb #3700, and vinculin Rabbit mAb #13901) were diluted 1:2000. The following day, the membranes were washed in TPBS and incubated with horseradish peroxidase (HRP)-conjugated secondary antibodies (Anti-rabbit IgG, HRP-linked Antibody #7074 or Anti-mouse IgG, HRP-linked Antibody #7076) for 1 h at room temperature. The membranes were then washed in TPBS and incubated with a SuperSignal™ West Pico Chemiluminescent Substrate (Thermo Fisher Scientific). Finally, the membranes were visualized using a ChemiDoc™ XRS + System (Bio-Rad). The experiments were carried out four to five times. The densitometric analysis was performed using ImageJ software (Wayne Rasband, National Institutes of Health, USA).
# We, therefore, decided to test the effect of the tested compound on the level of the main glucose transporter, GLUT-1. […] The validity of the described conclusions was confirmed by the results that were obtained for doxorubicin. in which p53 activation occurred at both tested time points with a concomitant decrease in the GLUT-1 levels. […] The results that were obtained from the measurements of the expression of this protein were so interesting, and at the same time, inconclusive that we additionally decided to determine the effect of the tested derivative 13 on the expression of the genes encoding selected glucose transporters.
SMILES,melting point,"IC50 (HCT 116 p53+/+; Homo sapiens, HCT-116, 72 h)","IC50 (HCT 116 p53-/-; Homo sapiens, HCT-116, 72 h)",SI (selectivity index) HCT 116 p53+/+ (HCT 116 p53+/+),SI (selectivity index) HCT 116 p53-/- (HCT 116 p53-/-),IC50 (NHDF; NHDF),further results
Oc1cccc2ccc(/C=C/c3ccco3)nc12 [Compound 1],–,–,–,–,–,–,IC50 (HCT 116 p53+/+): > 25 µM; IC50 (HCT 116 p53-/-): > 25 µM
Cc1ccc(/C=C/c2ccc3cccc(O)c3n2)o1 [Compound 2],–,–,–,–,–,–,IC50 (HCT 116 p53+/+): > 25 µM; IC50 (HCT 116 p53-/-): > 25 µM
O=[N+]([O-])c1ccc(/C=C/c2ccc3cccc(O)c3n2)o1 [Compound 3],189 to 191 °C,–,–,–,–,–,–
CC(=O)Oc1cccc2ccc(/C=C/c3ccc([N+](=O)[O-])o3)nc12 [Compound 4],173 to 175 °C,0.2 ± 0.03 µM,0.24 ± 0.05 µM,3.35,2.79,0.67 ± 0.08 µM,–
O=[N+]([O-])c1ccc(/C=C/c2cc(O)c3ccccc3n2)o1 [Compound 5],306 to 308 °C,0.3 ± 0.1 µM,0.3 ± 0.07 µM,1.50,1.50,0.45 ± 0.07 µM,–
Oc1c(Cl)cc(Cl)c2ccc(C=Cc3ccco3)nc12 [Compound 6],–,–,–,–,–,–,IC50 (HCT 116 p53+/+): 4 µM and 4.01 µM; IC50 (HCT 116 p53-/-): 2.7 µM and 2.72 µM; IC50 (NHDF): > 25 µM
O=[N+]([O-])c1ccc(/C=C/c2ccnc3ccccc23)c([N+](=O)[O-])c1 [Compound 12],200 to 201 °C,–,–,–,–,–,"IC50 (HCT 116 p53+/+; Homo sapiens, HCT-116): > 25 µM; IC50 (HCT 116 p53-/-; Homo sapiens, HCT-116): > 25 µM"
"COc1cccc2c1C(=O)c1c(O)c3c(c(O)c1C2=O)C[C@@](O)(C(=O)CO)C[C@@H]3O[C@H]1C[C@H](N)[C@H](O)[C@H](C)O1 [Doxorubicin, reference compound]",–,–,–,0.41,0.37,0.14 ± 0.03 µM,"IC50 (HCT 116 p53+/+; Homo sapiens, HCT-116): 0.34 ± 0.04 µM; IC50 (HCT 116 p53-/-; Homo sapiens, HCT-116): 0.38 ± 0.03 µM; SI (selectivity index) K562 (K562; relative to NHDF): 7.00; IC50 (K562; Homo sapiens, K562, MTS, 72-h incubation): 0.02 ± 0.01 µM; SI (selectivity index) U-251 (U-251; relative to NHDF): 2.80; IC50 (U-251; Homo sapiens, U-251, MTS, 72-h incubation): 0.05 ± 0.02 µM; SI (selectivity index) AsPC-1 (AsPC-1; relative to NHDF): 0.16; IC50 (AsPC-1; Homo sapiens, ASPC1, MTS, 72-h incubation): 0.86 ± 0.13 µM; SI (selectivity index) PANC-1 (PANC-1; relative to NHDF): 0.19; IC50 (PANC-1; Homo sapiens, PANC-1, MTS, 72-h incubation): 0.73 ± 0.09 µM; GLUT-1 protein level vs control (GLUT-1): decrease"

# Second part, led by results:
melting point,"IC50 (HCT 116 p53+/+; Homo sapiens, HCT-116, 72 h)","IC50 (HCT 116 p53-/-; Homo sapiens, HCT-116, 72 h)",SMILES,SI (selectivity index) HCT 116 p53+/+ (HCT 116 p53+/+),SI (selectivity index) HCT 116 p53-/- (HCT 116 p53-/-),IC50 (NHDF; NHDF),further results
270 to 271 °C,3.46 ± 0.34 µM,1.33 ± 0.25 µM,O=[N+]([O-])c1ccc(/C=C/c2ccc3c(Cl)cc(Cl)c(O)c3n2)o1 [Compound 7],> 7.23,> 18.80,> 25 µM,–
220 to 222 °C,2.08 ± 0.4 µM,1.12 ± 0.51 µM,CC(=O)Oc1c(Cl)cc(Cl)c2ccc(/C=C/c3ccc([N+](=O)[O-])o3)nc12 [Compound 8],5.46,10.13,11.3 ± 2.53 µM,–
161 to 163 °C,> 25 µM,> 25 µM,O=[N+]([O-])c1ccccc1/C=C/c1ccnc2ccccc12 [Compound 9],–,–,–,–
111 to 112 °C,> 25 µM,> 25 µM,O=[N+]([O-])c1cccc(/C=C/c2ccnc3ccccc23)c1 [Compound 10],–,–,–,–
228 to 229 °C,> 25 µM,> 25 µM,O=[N+]([O-])c1ccc(/C=C/c2ccnc3ccccc23)cc1 [Compound 11],–,–,–,–
